Measurements as given in patent US20090054376A1, “BENZOFURAN DERIVATIVES WITH THERAPEUTIC ACTIVITIES” (Pharmos Corporation, priority 2005, published 2009).
Where a name gives a salt, the structure may show the parent alone. Read-outs that look alike come from different tables or passages of the source.

Key:
[1] = test system: carrageenan induced inflammatory pain and paw edema; assay: Inflammatory pain and paw edema induced by carrageenan; assay type: in vivo, Male Sprague Dawley rats; conditions: for inhibition in vivo at 10 mg/kg / inhibition in vivo at 20 mg/kg: Rattus norvegicus, ip; for inhibition in vivo at 10 mg/kg / Percent Inhibition of Inflammatory Pain Responses, Edema / Percent Inhibition of Inflammatory Pain Responses, ΔForce / Percent Inhibition of Inflammatory Pain Responses, ΔLT: 10 mg/kg i.p.; for inhibition in vivo at 20 mg/kg: 20 mg/kg i.p. (two asterisks)
Protocol: Male Sprague Dawley rats (average body weight 200 g, Harlan, Israel) were transiently sedated by placement on dry ice for the duration of the injections. Rats were injected subcutaneously, in the subplantar region of one (right) paw with 0.1 ml of 2% w/v λ Carrageenan in sterile saline. […] Test compounds were, unless otherwise stated, administered i.p. at initial single dose of 3, 10 or 20 mg/kg, and volume dose of 5 ml/kg, immediately after the carrageenan injection. Selected compounds were also tested p.o. following oral gavage. Vehicle and celecoxib treated animals were used as controls. Each treatment group comprised at least seven animals.
Before induction of inflammatory pain and three hours after injection, the animals reactions to pain stimuli were tested in two systems. The first stimulus was thermal and assessed by the Plantar Test according to Hargreaves, using Ugo Basile Model 7370. The scale was set to an intensity of 50 arbitrary units. The latency time till the animal lift a paw as a reaction to the thermal stimulus was recorded for both the inflamed and non-inflamed hind paws. The second stimulus was mechanical (tactile) and assessed using a Dynamic Plantar Sesthesiomether (Ugo Basile Model 73400-002). […] Finally, the impact on paw edema was assessed. Paw thickness was measured using a dial thickness gauge (Spring-dial, constant low pressure gauge, Mitutoyo, TG/L-1, 0.01 mm) and paw volume was measured using a plethysmometer (model #7150, Ugo Basile, Italy). At the end of the study, animals were euthanized.
The results are measured as the differences between the two hind paws at time 0 and 3 hours both as ALT, for the latency time in the thermal part of the study, and as ΔForce, for the mechanical part of the study. The paw volume is expressed as percent from vehicle treated animals. Results are expressed as mean±SEM for each treatment group and the differences among those groups are analyzed by analysis of variance (ANOVA) followed by post-hoc Tukey's test.
Results refer to i.p. treatment with 10 mg/kg. Results marked with one asterisk refer to a dose 3 mg/kg, whereas two asterisks refer to 20 mg/kg. Celecoxib is included as reference.

[2] = test system: visceral pain writhing responses; assay: Visceral pain, acetic acid induced writhing responses; assay type: in vivo, Male ICR mice; conditions: for inhibition in vivo at 2 mg/kg: Mus musculus, iv, read-out: Percent Inhibition of Visceral Pain Writhing Responses; for inhibition in vivo at 2 mg/kg / Percent Inhibition of Visceral Pain Writhing Responses: single dose 2 mg/kg i.v., compared to untreated group
Protocol: Male ICR mice (average body weight 25 g, Harlan, Israel) were pretreated by i.v. injection at volume dose of 5 ml/kg of vehicle, control and test compounds at various doses. Other routes of administration were tested for selected compounds including i.m. or s.c. injections at volume dose of 2.5 ml/kg and p.o. gavage at volume dose of 5 ml/kg. Compounds were dissolved in CREMOPHOR®:Ethanol and diluted 1:20 in saline prior to injection or gavage. Compounds administered i.v. were injected fifteen minutes before pain induction, whereas compounds administered i.m., s.c. or p.o. were supplied thirty minutes before pain induction, unless otherwise indicated. Each treatment group, except for controls comprising at least 30 animals, was composed of at least 6 animals. Fifteen or thirty minutes after drug administration, depending on the route of administration, the mice were injected i.p. with 10 ml/kg of 0.6% acetic acid and the number of visceral pain related behaviors (writhing movements globally defined as WR, i.e. stretching, contractions of the abdomen accompanied by an elongation of the body and extension of the hind limbs) was counted over a period of 5 minutes, starting 5 minutes after the acetic acid administration. These visceral pain related behaviors were globally defined as writhing responses (WR). The results are expressed as mean number of writhing responses ±SEM. Data were analyzed using analysis of variance (ANOVA) followed by post-hoc Fisher test.

[3] = 3 hours after carrageenan, reduction in paw swelling, read-out: Percent Inhibition of Inflammatory Pain Responses, Edema
[4] = 3 hours, mechanical stimulus, read-out: Percent Inhibition of Inflammatory Pain Responses, ΔForce
[5] = 3 hours, thermal stimulus, read-out: Percent Inhibition of Inflammatory Pain Responses, ΔLT
[6] = 3 hours, reduction in paw swelling, read-out: Percent Inhibition of Inflammatory Pain Responses, Edema
[7] = 3 hours after carrageenan, reduction in paw swelling

In the case of `CCCCC(C)(C)c1cc(O)c2c(c1)OC1CCCCC21C` (stereo not shown) [Compound C6S-12, 3-(1,1-dimethylpentyl)-9a-methyl-5a,6,7,8,9,9a-hexahydro-dibenzofuran-1-ol], the inhibition in vivo at 10 mg/kg [1, 3] is reported as 53%, the inhibition in vivo at 10 mg/kg [1, 4] is reported as 37% and the inhibition in vivo at 10 mg/kg [1, 5] is reported as 33%.

In the case of `CCCCC(C)(C)c1cc(OCC(O)CO)c2c(c1)OC1CCCCC21` (stereo not shown) [Compound C6S-10, 3-[3-(1,1-Dimethylpentyl)-5a,6,7,8,9,9a-hexahydro-dibenzofuran-1-yloxy]-propane-1,2-diol], the inhibition in vivo at 2 mg/kg [2] is reported as 28%, the inhibition in vivo at 20 mg/kg [1, 4] is reported as 24% and the inhibition in vivo at 20 mg/kg [1, 6] is reported as 37%. The inhibition in vivo at 20 mg/kg [1, 5] was 50%.

Molecule `CCCCCCC(C)(C)c1cc(O)c2c3c(oc2c1)CCCC3` [Compound C6M-1, 3-(1,1-Dimethylheptyl)-6,7,8,9-tetrahydro-dibenzo-furan-1-ol] has an inhibition in vivo at 10 mg/kg [1, 3] of 31%, an inhibition in vivo at 10 mg/kg [1, 4] of 12% and an inhibition in vivo at 10 mg/kg [1, 5] of 12%.

Work on `CCCCC(C)(C)c1cc2c(c(OP(=O)(O)O)c1)C1CCCCC1O2` (stereo not shown) [Compound C6S-16, Phosphoric acid mono-[3-(1,1-dimethylpentyl)-5a,6,7,8,9,9a-hexahydro-dibenzofuran-1-yl]ester] yielded an inhibition in vivo at 20 mg/kg [1, 4] of 6%, an inhibition in vivo at 20 mg/kg [1, 6] of 31% and an inhibition in vivo at 20 mg/kg [1, 5] of 69%.

With `CCCCCCC(C)(C)c1cc(O)c2c(c1)OC1(C)C(C)CCC21` (stereo not drawn) [Compound C5S-4, 6-(1,1-dimethylheptyl)-1,8a-dimethyl-2,3,3a,8a-tetrahydro-1H-8-oxa-cyclo-penta[α]inden-4-ol] the “Percent Inhibition of Inflammatory Pain Responses, Edema” value (“Percent Inhibition … Edema” for short) [1, 7] was 49%, the “Percent Inhibition of Inflammatory Pain Responses, ΔForce” value (shortened to “Percent Inhibition … ΔForce”) ([1]; 3 hours, mechanical stimulus) was 88% and the “Percent Inhibition of Inflammatory Pain Responses, ΔLT” value (from here on “Percent Inhibition … ΔLT”) ([1]; 3 hours, thermal stimulus) was 100%.

In the case of `CCCCC(C)(C)c1cc(O)c2c(c1)OC1CCCCCC21` (stereo not drawn) [Compound C7S-3, 2-(1,1-dimethylpentyl)-5,6,7,8,9,9a-hexahydro-4bH-10-oxa-benzo[α]azulen-4-ol], the “Percent Inhibition … Edema” value [1, 7] is reported as 43%, the “Percent Inhibition … ΔForce” value ([1]; 3 hours, mechanical stimulus) is reported as 35% and the “Percent Inhibition … ΔLT” value ([1]; 3 hours, thermal stimulus) is reported as 46%.

For `CCCCCCC(C)(C)c1cc(OC(=O)C=CC(=O)O)c2c(c1)OC1(C)C(C)CCC21` (stereo not drawn) [Compound C5S-5, But-2-enedioic acid mono-[6-(1,1-dimethylheptyl)-1,8a-dimethyl-2,3,3a,8a-tetrahydro-1H-8-oxa-cyclopenta[α]inden-4-yl]ester], the “Percent Inhibition of Visceral Pain Writhing Responses” value [2] was 27%.

`COC(=O)c1cc(O)c2c(c1)OC1CCCCC21` (stereo not shown) [Compound C6S-21, 1-hydroxy-5a,6,7,8,9,9a-hexahydro-dibenzofuran-3-carboxylic acid methyl ester] showed an inhibition in vivo at 20 mg/kg [1, 6] of 38% and an inhibition in vivo at 20 mg/kg [1, 5] of 44%.

`CCCCCCC(C)(C)c1cc(OC(=O)CCNC)c2c(c1)OC1CC(C)(C)CCC21` (stereo not shown) [Compound C6S-39, 3-Methylamino-propionic acid 3-(1,1-dimethylheptyl)-7,7-dimethyl-5a,6,7,8,9,9a-hexahydro-dibenzofuran-1-yl ester] was tested, and the “inhibition of writhing responses” value ([2]; 0.02 mg/kg i.v., compared to vehicle) was 38%, the “inhibition of pain response” value ([2]; 0.08 mg/kg i.v.) was “totally inhibited pain response” and the “fold more potent than morphine” value ([2]; IC50 in visceral pain, i.v.) was 35 fold. For the same molecule, the inhibition in vivo at 2 mg/kg [2] was over 90% and the “IC50 in visceral pain” value ([2]; i.v., estimated or calculated from dose range) was 0.03 mg/kg.

In the case of `CCCCCCC(C)(C)c1cc2c(c(OP(=O)(O)O)c1)C1CCCCC(O)C1O2` (stereo not drawn) [Compound C7S-13, Phosphoric acid mono-[2-(1,1-dimethylheptyl)-9-hydroxy-5,6,7,8,9,9a-hexahydro-4bH-10-oxa-benzo[α]azulen-4-yl]ester], the “Percent Inhibition of Visceral Pain Writhing Responses” value [2] is reported as 72%, the “Percent Inhibition … Edema” value [1, 7] is reported as 34% and the “Percent Inhibition … ΔForce” value ([1]; 3 hours, mechanical stimulus) is reported as 6%. The “Percent Inhibition … ΔLT” value ([1]; 3 hours, thermal stimulus) was 0%.

Molecule `CCCCCCC(C)(C)c1cc(OCC(=O)O)c2c(c1)OC1CCCCC21` (stereo not shown) [Compound C6S-18, [3-(1,1-dimethylheptyl)-5a,6,7,8,9,9a-hexahydro-dibenzofuran-1-yloxy]-acetic acid] has an inhibition in vivo at 20 mg/kg [1, 4] of 31%, an inhibition in vivo at 20 mg/kg [1, 6] of 48% and an inhibition in vivo at 20 mg/kg [1, 5] of 49%.

For `CCCCCCC(C)(C)c1cc(O)c2c(c1)OC1C(N)CCCCC21` (stereo not drawn) [C7S-32 HCl salt, 9-Amino-2-(1,1-dimethylheptyl)-5,6,7,8,9,9a-hexahydro-4bH-10-oxa-benzo[α]azulen-4-ol], the “inhibition of pain (writhing) response” value ([2]; 4 mg/kg i.v.) was 50% and the “inhibition of pain (writhing) response” value ([2]; 10 mg/kg i.v.) was 84%.

In the case of `Cc1ccc(-c2cc(C(F)(F)F)nn2-c2ccc(S(N)(=O)=O)cc2)cc1` [Celecoxib, reference compound], the “activity in visceral pain model” value ([2]; doses up to 10 mg/kg) is reported as “inactive”, the “Percent Inhibition … ΔForce” value ([1]; 3 hours, mechanical stimulus) is reported as 2% and the inhibition in vivo at 10 mg/kg [1, 3] is reported as 45%. The inhibition in vivo at 10 mg/kg [1, 4] was 2% and the inhibition in vivo at 10 mg/kg [1, 5] was 58%.

For `CCCCCCC(C)(C)c1cc(O)c2c(c1)OC1C(N)CCCCC21` (stereo not drawn) [Compound C7S-32, 9-Amino-2-(1,1-dimethylheptyl)-5,6,7,8,9,9a-hexahydro-4bH-10-oxa-benzo[α]azulen-4-ol], the “inhibition of pain (writhing) response” value ([2]; 4 mg/kg i.v.) was 38% and the “inhibition of pain (writhing) response” value ([2]; 10 mg/kg i.v.) was 100%.
